Assay [1] deals with T1, Myosin light chain kinase family member 4 (Homo sapiens) (UniProt Q86YV6).
T1 sequence (whole entry): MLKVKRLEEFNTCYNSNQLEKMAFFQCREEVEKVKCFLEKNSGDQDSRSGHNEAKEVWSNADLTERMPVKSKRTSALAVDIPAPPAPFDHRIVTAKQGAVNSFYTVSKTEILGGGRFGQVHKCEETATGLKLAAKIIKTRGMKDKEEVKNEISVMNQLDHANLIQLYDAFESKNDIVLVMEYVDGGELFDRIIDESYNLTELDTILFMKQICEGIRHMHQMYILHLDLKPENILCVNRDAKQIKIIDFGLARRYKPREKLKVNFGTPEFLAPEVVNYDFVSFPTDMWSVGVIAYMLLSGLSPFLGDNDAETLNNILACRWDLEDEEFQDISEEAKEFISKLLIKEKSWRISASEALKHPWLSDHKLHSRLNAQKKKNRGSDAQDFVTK
Put plainly: Selectivity interaction (Ambit KINOMEscan and KiNATiv profiling in Jurkat cells) EUB0000090b MYLK4. In kind it is cell-based. Particulars: at 1 µM.

In assay [2] the target is Tyrosine-protein kinase Lck (Homo sapiens, UniProt P06239). Put plainly: Selectivity interaction (Panel of non-epigenetic targets (kinases, GPCRs, ion channels, and transporters, Eurofins) ) EUB0000271b LCK. As to conditions: at 1 µM.
Assay [3] addresses Histone-lysine N-methyltransferase SETD2 (Homo sapiens) (UniProt Q9BYW2). Particulars: at 10 µM.
Assay [4] concerns the target Protein-tyrosine kinase 2-beta (Homo sapiens) (UniProt Q14289). Put plainly: Selectivity interaction (KinomeScan (DiscoverX)) EUB0001619a PTK2B. Particulars: at 1 µM.
Assay [5] addresses Phosphatidylinositol 3-kinase catalytic subunit type 3 (Homo sapiens, UniProt Q8NEB9). Put plainly: Selectivity interaction (Kinase panel (ADP-Glow assay)) EUB0000877a PIK3C3.
Assay [6] deals with Calcium/calmodulin-dependent protein kinase type II subunit beta (Homo sapiens) (UniProt Q13554). Put plainly: Selectivity interaction (ActivX KiNativ screen (kinase selectivity in THP-1 cell lysates)) EUB0000639a CAMK2B. In kind it is subcellular. Particulars: lysate, at 1 µM.
Sequence of Calcium/calmodulin-dependent protein kinase type II subunit beta (Homo sapiens) (Q13554 whole entry): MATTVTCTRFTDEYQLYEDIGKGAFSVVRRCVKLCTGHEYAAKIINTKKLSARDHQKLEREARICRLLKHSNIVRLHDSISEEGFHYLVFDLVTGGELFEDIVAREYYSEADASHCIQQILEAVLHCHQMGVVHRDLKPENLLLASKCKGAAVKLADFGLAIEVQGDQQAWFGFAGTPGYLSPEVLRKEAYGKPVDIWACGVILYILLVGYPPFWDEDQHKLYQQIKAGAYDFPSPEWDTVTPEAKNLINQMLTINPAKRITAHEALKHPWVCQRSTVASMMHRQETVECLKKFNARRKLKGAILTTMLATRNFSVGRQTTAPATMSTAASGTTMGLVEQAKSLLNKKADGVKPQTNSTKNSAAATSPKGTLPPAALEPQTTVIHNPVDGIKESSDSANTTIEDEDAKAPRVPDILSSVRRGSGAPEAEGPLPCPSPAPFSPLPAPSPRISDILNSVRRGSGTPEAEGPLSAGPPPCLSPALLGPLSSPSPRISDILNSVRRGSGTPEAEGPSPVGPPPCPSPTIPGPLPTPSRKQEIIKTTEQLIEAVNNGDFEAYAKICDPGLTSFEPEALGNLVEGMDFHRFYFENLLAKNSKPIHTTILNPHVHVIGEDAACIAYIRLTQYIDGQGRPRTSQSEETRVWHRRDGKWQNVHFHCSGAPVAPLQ
Assay [7] deals with T2, Scaffold protein ILK (Homo sapiens) (UniProt Q13418).
T2 sequence (whole entry): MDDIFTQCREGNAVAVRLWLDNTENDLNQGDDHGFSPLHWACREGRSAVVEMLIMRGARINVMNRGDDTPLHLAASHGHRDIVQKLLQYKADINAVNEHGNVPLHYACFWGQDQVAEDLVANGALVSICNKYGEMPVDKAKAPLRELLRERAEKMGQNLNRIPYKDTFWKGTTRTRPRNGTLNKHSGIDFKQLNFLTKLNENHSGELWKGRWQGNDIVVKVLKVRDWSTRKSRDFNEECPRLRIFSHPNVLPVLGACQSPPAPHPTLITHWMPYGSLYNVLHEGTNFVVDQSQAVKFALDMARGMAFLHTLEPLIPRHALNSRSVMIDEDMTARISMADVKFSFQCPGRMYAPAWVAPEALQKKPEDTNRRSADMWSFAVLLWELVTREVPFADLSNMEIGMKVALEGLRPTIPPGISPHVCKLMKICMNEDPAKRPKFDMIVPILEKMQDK
Put plainly: Selectivity interaction (ActivX KiNativ screen (kinase selectivity in THP-1 cell lysates)) EUB0000639a ILK. Particulars: lysate. In kind it is subcellular.

Assay [8] addresses Cyclin-dependent kinase 8 (Homo sapiens, UniProt P49336). The assay is described as follows: Selectivity interaction (KinomeScan (DiscoverX)) EUB0001049a CDK8. As to conditions: at 1 µM.
For assay [9], the target named is Mitogen-activated protein kinase 10 (Homo sapiens, UniProt P53779). The assay is described as follows: Selectivity interaction (KinomeScan (DiscoverX)) EUB0001049a MAPK10. As to conditions: at 1 µM.
For assay [10], the target named is Mitogen-activated protein kinase 4 (Homo sapiens) (UniProt P31152). The assay is described as follows: Selectivity interaction (KinomeScan (DiscoverX)) EUB0001049a MAPK4. As to conditions: at 1 µM.
Sequence of Mitogen-activated protein kinase 4 (Homo sapiens) (P31152 whole entry): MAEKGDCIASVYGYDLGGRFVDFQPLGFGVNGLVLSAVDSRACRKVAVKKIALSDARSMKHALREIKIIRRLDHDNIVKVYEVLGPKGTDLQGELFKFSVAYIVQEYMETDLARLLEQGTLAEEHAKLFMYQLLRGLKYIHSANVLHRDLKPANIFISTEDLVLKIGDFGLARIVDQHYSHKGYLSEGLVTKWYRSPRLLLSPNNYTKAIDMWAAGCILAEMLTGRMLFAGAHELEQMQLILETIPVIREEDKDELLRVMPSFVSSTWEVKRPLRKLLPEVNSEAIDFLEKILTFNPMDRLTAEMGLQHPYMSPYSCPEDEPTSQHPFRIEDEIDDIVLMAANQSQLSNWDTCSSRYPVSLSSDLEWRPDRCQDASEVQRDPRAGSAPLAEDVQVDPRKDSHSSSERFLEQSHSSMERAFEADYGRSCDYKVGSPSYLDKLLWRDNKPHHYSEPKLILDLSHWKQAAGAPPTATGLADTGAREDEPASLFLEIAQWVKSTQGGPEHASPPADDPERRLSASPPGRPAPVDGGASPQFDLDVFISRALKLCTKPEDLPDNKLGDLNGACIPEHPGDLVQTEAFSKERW
A further assay has as its target Insulin receptor (Homo sapiens, UniProt P06213). Put plainly: Selectivity interaction (KinomeScan (DiscoverX)) EUB0000695a INSR. Particulars: at 100 nM.
In assay [11] the target is Tyrosine-protein kinase FRK (Homo sapiens) (UniProt P42685). Put plainly: Selectivity interaction (ProQinase) EUB0000171b FRK.
Sequence of Tyrosine-protein kinase FRK (Homo sapiens) (P42685 whole entry): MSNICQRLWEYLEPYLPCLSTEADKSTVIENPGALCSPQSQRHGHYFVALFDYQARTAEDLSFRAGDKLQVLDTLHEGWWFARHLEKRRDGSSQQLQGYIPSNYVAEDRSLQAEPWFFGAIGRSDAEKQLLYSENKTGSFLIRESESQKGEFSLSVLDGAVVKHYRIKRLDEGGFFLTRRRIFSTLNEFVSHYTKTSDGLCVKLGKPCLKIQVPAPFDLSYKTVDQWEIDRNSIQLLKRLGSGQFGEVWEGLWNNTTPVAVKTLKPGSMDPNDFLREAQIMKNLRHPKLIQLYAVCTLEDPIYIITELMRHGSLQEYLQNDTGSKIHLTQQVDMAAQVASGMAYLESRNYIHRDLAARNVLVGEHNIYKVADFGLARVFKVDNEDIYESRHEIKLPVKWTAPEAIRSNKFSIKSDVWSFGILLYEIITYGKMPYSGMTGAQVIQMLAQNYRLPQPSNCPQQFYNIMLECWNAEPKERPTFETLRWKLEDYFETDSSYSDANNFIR
For assay [12], the target named is High affinity nerve growth factor receptor (Homo sapiens, UniProt P04629). The assay is described as follows: Selectivity interaction (ProQinase) EUB0000171b NTRK1.
Sequence of High affinity nerve growth factor receptor (P04629 33-796 limits assumed): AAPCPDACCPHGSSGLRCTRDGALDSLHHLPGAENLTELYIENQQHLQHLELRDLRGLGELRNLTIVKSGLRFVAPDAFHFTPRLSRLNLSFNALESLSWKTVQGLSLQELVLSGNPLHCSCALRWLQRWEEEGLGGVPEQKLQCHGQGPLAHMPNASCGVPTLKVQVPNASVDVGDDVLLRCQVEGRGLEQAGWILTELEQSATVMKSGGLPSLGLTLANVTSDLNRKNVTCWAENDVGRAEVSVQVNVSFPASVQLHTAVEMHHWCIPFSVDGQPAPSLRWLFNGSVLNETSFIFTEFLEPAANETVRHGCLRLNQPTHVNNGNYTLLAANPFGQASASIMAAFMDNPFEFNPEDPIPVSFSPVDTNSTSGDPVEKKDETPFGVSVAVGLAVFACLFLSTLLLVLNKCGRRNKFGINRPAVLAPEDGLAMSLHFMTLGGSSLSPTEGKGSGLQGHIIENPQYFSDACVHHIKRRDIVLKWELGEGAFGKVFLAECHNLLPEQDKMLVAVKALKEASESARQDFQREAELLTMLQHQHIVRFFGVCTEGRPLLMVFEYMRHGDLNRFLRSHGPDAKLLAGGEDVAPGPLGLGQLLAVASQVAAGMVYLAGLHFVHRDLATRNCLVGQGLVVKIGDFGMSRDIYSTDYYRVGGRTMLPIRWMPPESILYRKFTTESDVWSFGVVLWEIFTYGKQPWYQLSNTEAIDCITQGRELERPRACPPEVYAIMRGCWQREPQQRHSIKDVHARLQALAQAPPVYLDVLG
The target of assay [13] is T3, Phosphorylase b kinase gamma catalytic chain, liver/testis isoform (Homo sapiens) (UniProt P15735).
T3 sequence (whole entry): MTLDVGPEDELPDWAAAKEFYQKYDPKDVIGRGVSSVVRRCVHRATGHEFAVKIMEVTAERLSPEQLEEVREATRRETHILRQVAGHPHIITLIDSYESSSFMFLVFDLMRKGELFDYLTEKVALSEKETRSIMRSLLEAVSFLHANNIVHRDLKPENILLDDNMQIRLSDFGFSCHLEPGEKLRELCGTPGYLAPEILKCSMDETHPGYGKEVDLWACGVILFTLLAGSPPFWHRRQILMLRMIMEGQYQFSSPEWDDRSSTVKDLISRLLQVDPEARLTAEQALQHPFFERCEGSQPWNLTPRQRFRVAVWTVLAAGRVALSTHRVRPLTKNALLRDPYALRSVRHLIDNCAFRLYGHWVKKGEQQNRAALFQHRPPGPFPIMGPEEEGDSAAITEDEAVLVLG
The assay is described as follows: Selectivity interaction (ProQinase) EUB0000171b PHKG2.

Assay [14] addresses Calcium/calmodulin-dependent protein kinase type II subunit delta (Homo sapiens) (UniProt Q13557). Put plainly: Selectivity interaction (KinomeScan (DiscoverX)) EUB0000092b CAMK2D. Particulars: at 10 µM.

Sequence of Protein-tyrosine kinase 2-beta (Homo sapiens) (Q14289 whole entry, looked up): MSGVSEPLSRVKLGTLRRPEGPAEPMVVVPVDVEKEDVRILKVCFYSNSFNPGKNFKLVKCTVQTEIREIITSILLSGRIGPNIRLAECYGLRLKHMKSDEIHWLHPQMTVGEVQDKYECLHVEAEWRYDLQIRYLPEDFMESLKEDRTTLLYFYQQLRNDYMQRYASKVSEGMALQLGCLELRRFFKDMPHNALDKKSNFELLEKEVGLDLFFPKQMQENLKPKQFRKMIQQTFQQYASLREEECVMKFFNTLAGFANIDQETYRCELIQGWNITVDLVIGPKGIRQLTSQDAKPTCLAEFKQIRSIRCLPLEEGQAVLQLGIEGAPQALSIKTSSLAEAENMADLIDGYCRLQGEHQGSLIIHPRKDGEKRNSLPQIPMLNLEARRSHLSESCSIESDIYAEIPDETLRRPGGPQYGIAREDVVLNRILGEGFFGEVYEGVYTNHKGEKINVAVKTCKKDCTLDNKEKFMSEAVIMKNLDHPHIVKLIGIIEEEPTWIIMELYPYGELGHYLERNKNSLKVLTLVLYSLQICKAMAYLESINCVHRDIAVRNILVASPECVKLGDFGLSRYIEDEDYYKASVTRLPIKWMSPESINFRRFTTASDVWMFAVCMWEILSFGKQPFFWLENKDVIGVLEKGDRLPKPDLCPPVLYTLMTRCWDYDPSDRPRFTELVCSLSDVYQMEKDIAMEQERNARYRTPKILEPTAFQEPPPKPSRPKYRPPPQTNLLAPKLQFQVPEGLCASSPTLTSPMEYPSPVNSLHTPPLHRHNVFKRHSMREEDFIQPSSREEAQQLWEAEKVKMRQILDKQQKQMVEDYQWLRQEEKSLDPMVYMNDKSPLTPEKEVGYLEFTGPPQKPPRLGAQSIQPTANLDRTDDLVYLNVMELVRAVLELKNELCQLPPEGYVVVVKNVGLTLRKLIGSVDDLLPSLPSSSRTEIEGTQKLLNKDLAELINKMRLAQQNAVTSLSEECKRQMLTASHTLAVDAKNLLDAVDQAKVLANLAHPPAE
Sequence of Calcium/calmodulin-dependent protein kinase type II subunit delta (Homo sapiens) (Q13557 whole entry): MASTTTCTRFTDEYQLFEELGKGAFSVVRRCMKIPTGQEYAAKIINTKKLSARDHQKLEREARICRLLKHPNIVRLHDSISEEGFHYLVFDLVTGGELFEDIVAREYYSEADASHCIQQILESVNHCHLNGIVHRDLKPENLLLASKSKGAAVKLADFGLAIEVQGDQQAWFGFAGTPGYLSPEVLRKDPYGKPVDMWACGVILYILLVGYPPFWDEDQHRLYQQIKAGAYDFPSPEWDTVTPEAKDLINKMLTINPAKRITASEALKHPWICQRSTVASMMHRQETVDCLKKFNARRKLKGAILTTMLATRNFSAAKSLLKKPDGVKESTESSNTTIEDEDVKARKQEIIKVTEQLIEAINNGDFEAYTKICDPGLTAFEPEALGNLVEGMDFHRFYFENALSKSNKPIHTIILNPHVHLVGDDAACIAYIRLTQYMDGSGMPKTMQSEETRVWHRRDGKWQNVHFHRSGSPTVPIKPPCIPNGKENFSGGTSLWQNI
Sequence of Phosphatidylinositol 3-kinase catalytic subunit type 3 (Q8NEB9 whole entry): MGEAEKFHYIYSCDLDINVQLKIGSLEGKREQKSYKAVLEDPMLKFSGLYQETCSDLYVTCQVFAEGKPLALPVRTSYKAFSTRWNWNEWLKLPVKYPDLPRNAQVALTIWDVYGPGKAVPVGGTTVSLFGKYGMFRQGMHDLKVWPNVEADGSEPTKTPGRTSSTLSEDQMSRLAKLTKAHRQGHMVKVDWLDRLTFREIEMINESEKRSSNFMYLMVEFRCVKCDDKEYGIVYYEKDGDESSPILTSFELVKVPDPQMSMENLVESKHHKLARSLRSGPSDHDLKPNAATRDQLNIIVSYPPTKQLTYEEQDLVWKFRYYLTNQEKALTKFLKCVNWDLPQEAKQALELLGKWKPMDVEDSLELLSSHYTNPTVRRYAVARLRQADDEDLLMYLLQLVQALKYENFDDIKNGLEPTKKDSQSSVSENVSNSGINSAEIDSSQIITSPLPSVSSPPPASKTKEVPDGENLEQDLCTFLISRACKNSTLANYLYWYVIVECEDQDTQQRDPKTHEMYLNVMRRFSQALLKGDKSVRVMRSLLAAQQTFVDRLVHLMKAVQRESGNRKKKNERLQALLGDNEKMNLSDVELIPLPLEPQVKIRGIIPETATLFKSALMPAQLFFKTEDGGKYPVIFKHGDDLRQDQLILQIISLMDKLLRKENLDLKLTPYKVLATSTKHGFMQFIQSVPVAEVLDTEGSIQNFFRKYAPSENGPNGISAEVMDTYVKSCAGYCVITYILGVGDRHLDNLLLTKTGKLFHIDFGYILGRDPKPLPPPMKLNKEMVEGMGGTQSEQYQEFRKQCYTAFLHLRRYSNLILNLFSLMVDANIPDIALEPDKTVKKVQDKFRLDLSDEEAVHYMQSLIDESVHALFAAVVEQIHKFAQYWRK

Turning to `CN(C)C/C=C/C(=O)Nc1ccc(C(=O)N2CCCC(Nc3ncc(Cl)c(-c4c[nH]c5ccccc45)n3)C2)cc1` (configuration not stated), in [1], the % of control was 55%.

As to `Cc1cc(C)cc([C@@H]2c3cc(C)ccc3NC(=O)CN2C(=O)c2ccc(Br)s2)c1`, in assay [2], the % of inhibition turned out to be 1%.

Take `CNCCN1CCC(c2cc(CN(C)C(=O)c3cccc(Oc4ccccc4)c3)ccn2)CC1`: the % activity in assay [3] was more than 90%.

`N#Cc1cccc(-c2c[nH]c3ncnc(N4CCOCC4)c23)c1` displayed a % of control in [4] of 100%.

In assay [5], `CCC(=O)N1CC[C@H](Nc2ncnc3c2CN(c2cnc(OC)c(C(F)(F)F)c2)CC3)C1` [LENIOLISIB] came in with an IC50 of more than 9.1 µM.

As for `CC[C@@H]1[C@H](F)C(=O)N[C@@H]1COc1nccc2cc(C(N)=O)c(OC)cc12` [ZIMLOVISERTIB], the % of inhibition is 10% in assay [6]; 6.6% in assay [7] (at 0.01 µM); 1.4% in [7] (at 0.04 µM); 11.2% in [7] (at 0.2 µM); 7.8% in [7] (at 1 µM); -3.7% in [7] (at 5 µM).

Take `COc1cc(Nc2nc(C)cc(-c3cnn4nc(OC)ccc34)n2)cc(C(F)(F)F)c1`: the % of control in assay [8] amounted to 100%; in assay [9], 77%; in assay [10], 100%.

In the case of `Cc1cc(F)c(C(=O)Nc2cccc(-c3nncn3C(C)C)n2)cc1-n1cnc(C2CC2)c1`, the % of control at Insulin receptor is 100%.

In the case of `C=CC(=O)Nc1cccc(C(=O)Nc2ccc(Nc3cc(-c4[nH]c(SC)nc4C)ccn3)cc2)c1`, the % of control in assay [11] (at 1 µM) is 99%; in [11] (at 5 µM) it was 75%; in assay [12] (at 1 µM) it was 81%; in assay [12] (at 5 µM) it was 58%; in assay [13] (at 1 µM), 94%; in assay [13] (at 5 µM) it was 96%.

On to `CCC(=O)N1CCN(c2ccc(-n3c(=O)ccc4cnc5ccc(-c6cnc7ccccc7c6)cc5c43)cc2C(F)(F)F)CC1`, for which, in assay [14], the % of control came out at 72%.

These data come from ChEMBL document CHEMBL5465560, “Selectivity Literature for EUbOPEN Chemogenomic Library” (2024).
